Type in all cases: biochemical
In assay [1] the target is T1, hOAT (Homo sapiens, UniProt P04181).
T1 sequence (P04181 36-439 limits assumed): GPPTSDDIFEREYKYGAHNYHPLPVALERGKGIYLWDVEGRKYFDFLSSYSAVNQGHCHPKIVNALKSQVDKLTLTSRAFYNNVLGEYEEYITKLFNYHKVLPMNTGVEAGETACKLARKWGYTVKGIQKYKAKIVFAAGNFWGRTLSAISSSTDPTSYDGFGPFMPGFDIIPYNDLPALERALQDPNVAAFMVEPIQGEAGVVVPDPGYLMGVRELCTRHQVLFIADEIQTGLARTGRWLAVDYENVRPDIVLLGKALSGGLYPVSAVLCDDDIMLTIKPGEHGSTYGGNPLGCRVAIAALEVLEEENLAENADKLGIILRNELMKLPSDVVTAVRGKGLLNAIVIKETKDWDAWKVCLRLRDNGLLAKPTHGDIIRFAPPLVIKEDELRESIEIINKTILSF
The assay can be described thus: Dialysis of hOAT inactivated by compound. Conditions: hOAT dialyzed at 5° C. for 72 hours. The method, then:
Samples of hOAT that had been inactivated by varying equivalents of 6 were dialyzed at 5° C. for 72 hours. At 4-, 12-, 24-, 48-, and 72-hour time points, aliquots were taken and the activity of the hOAT was measured.

Assay [2] has as its system GABA-AT. The assay can be described thus: Time-dependent inhibition of GABA-AT. Conditions: conclusion statement. The source says: Time-dependent inhibition of both GABA-AT and OAT were explored with racemic 6 (FIGS. 4 and 5). […] Racemic Vince lactam was used for the aforementioned biological assays.
The target in assay [3] is T1, hOAT. The assay can be described thus: Time-dependent inactivation of hOAT. The conditions noted are these: enantiopure compound.
The target in assay [4] is T1, hOAT. The assay can be described thus: Turnover number and partition ratio by titrating hOAT with varying equivalents of inactivator. The method, then:
The turnover number and partition ratio of 6 were determined by titrating a known amount of hOAT with varying equivalents of inactivator (FIG. 12). The linear relationship of the remaining enzymatic activity was extrapolated to yield the number of equivalents of 6 required to inactivate the enzyme completely. From this we determined the turnover number of 6 to be 8.5 equivalent and the partition ratio to be 7.5. Based on our understanding of the mechanism, we believe that the turnover number may indicate that the second deprotonation is slow, which would allow the ketimine time to hydrolyze in a higher percentage than if the second deprotonation occurred rapidly.

Consider one molecule from patent US20260265177A1, “BICYCLIC COMPOUNDS AS INACTIVATORS OF OAT AND GABA-AT” (Northwestern University, priority 2023, published 2026).

The kinact/KI is the maximal inactivation rate divided by the concentration that gives half of it.

Turning to `N[C@@H]1CC2C(F)(F)[C@@]2(C(=O)O)C1` (stereo partly drawn) [compound 6, (1S,3R)-3-amino-6,6-difluorobicyclo[3.1.0]hexane-1-carboxylic acid], in assay [1], the “enzymatic activity recovered after dialysis” value was “No enzymatic activity was recovered”. The “activity in GABA-AT” value in assay [2] is reported as “modest activity”. In addition, the kinact/KI in assay [3] was 2.6 M⁻¹ s⁻¹. Also, in assay [4], the partition ratio is 7.5. The turnover number in assay [4] (extrapolated from linear relationship of remaining enzymatic activity) was 8.5 equivalent.
